Results from patent US20130011845A1, “MICRORNA REGULATING THE INSULIN SIGNALING PATHWAY, AND METHOD FOR SCREENING MATERIAL FOR CONTROLLING THE ACTION OF A TARGET THEREOF” (SNU R & DB Foundation, priority 2009, published 2013).

Experiments:
FOG2 3′UTR = assay: dual-luciferase 3′UTR reporter assay, pAC-FOG2; assay type: cell-based; conditions: luciferase reporter with FOG2 3′UTR, human Hela cell lines; average of at least two independent experiments
Description: (§1) In order to determine whether the target genes identified in Example 7 are in actuality targets of miR-8 and miR-200 family miRNAs, the inventors performed cloning. In other words, […] containing the miRNA target sites. Specifically, in order to obtain cDNAs of respective target genes, from drosophila S2 cell lines or human Hela cell lines, total RNA was extracted by using RNeasy mini kit (QIAGEN, US). 1 μg of total RNA and 1 μl of Oligo-dT (Invitrogen, US) were charged with up to 50 μl of distilled water, and placed into SuperScript First-Strand Synthesis System (Invitrogen, US), followed by RT-PCR reaction. Through the reaction at 65° C. for 6 min, at 4° C. for 5 min, at 42° C. for 60 min, at 95° C. for 5 min, and at 4° C. for 5 min, cDNA was synthesized. By using the cDNA (3˜5 μg) as template, and using a primer pair on respective genes noted in Table 3 and PCR Mastermix (Promega, US), PCR was performed on 3′UTR of ush, Lap1, CG8445, dbo, Lar, Ced-12, CG12333, cbt, FOG2, SEPT7, RIN2, SHC1, HOXB5, LF11, TCF7L1, ERBB21P, ELMO2, BAP1, WDR37, KLHL20, PTPRD, RASSF2 and VAC14 from among the target genes selected in Example 7. Herein, PCRP on atro as a drosophila control gene was also performed. After the reaction was completed, the PCR product on each gene's 3′UTR region was cleaved by each of the following restriction enzymes:
(§2) Then, it was cloned into pAC5.1 luciferase vector (a kind gift of Elisa Izaurralde) cleaved by the same restriction enzymes so as to produce a reporter plasmid having a miR-8 or miR-200 family target sequence in luciferase gene's 3′UTR sequence.
(§3) Reporter plasmids and renilla luciferase expression vectors (Promega, US), as noted in Table 4, and miRNAs of miR-200 family of miR-141, miR-200a (hsa-miR-200a, SEQ ID: 87: 5′-[…]-3′), miR-200b, miR-200c (has-miR-200c, SEQ ID: 88: 5′-[…]-3′) and miR-429, and miR-8 (dme-miR-8, SEQ ID: 89: 5′-[…]-3′) were bought from Samchonri and cotransfected into drosophila S2 cell lines or human Hela cell lines. Then, the activities of luciferase were measured through dual-luciferase assay (Promega, US) by a luminometer (Biorad). Then, 7 gene pairs that respond both to miR-8 and to mir-200 family miRNAs in Drosophila and human cells, respectively were identified (see FIG. 15).

ERBB2IP 3′UTR = assay: dual-luciferase 3′UTR reporter assay, pAC-ERBB2IP; assay type: cell-based; conditions: luciferase reporter with ERBB2IP 3′UTR, human Hela cell lines; average of at least two independent experiments
Description: as §1, §2, §3

BAP1 3′UTR = assay: dual-luciferase 3′UTR reporter assay, pAC-BAP1; assay type: cell-based; conditions: luciferase reporter with BAP1 3′UTR, human Hela cell lines; average of at least two independent experiments
Description: as §1, §2, §3

PTPRD 3′UTR = assay: dual-luciferase 3′UTR reporter assay, pAC-PTPRD; assay type: cell-based; conditions: luciferase reporter with PTPRD 3′UTR, human Hela cell lines; average of at least two independent experiments
Description: as §1, §2, §3

ELMO2 3′UTR = assay: dual-luciferase 3′UTR reporter assay, pAC-ELMO2; assay type: cell-based; conditions: luciferase reporter with ELMO2 3′UTR, human Hela cell lines; average of at least two independent experiments
Description: as §1, §2, §3

WDR37 3′UTR = assay: dual-luciferase 3′UTR reporter assay, pAC-WDR37; assay type: cell-based; conditions: luciferase reporter with WDR37 3′UTR, human Hela cell lines; average of at least two independent experiments
Description: as §1, §2, §3

KLF11 3′UTR = assay: dual-luciferase 3′UTR reporter assay, pAC-KLF11; assay type: cell-based; conditions: luciferase reporter with KLF11 3′UTR, human Hela cell lines; average of at least two independent experiments
Description: as §1, §2, §3

HOXB5 3′UTR = assay: dual-luciferase 3′UTR reporter assay, pAC-HOXB5; assay type: cell-based; conditions: luciferase reporter with HOXB5 3′UTR, human Hela cell lines; average of at least two independent experiments
Description: as §1, §2, §3

SEPT7 3′UTR = assay: dual-luciferase 3′UTR reporter assay, pAC-SEPT7; assay type: cell-based; conditions: luciferase reporter with SEPT7 3′UTR, human Hela cell lines; average of at least two independent experiments
Description: as §1, §2, §3

SHC1 3′UTR = assay: dual-luciferase 3′UTR reporter assay, pAC-SHC1; assay type: cell-based; conditions: luciferase reporter with SHC1 3′UTR, human Hela cell lines; average of at least two independent experiments
Description: as §1, §2, §3

RASSF2 3′UTR = assay: dual-luciferase 3′UTR reporter assay, pAC-RASSF2; assay type: cell-based; conditions: luciferase reporter with RASSF2 3′UTR, human Hela cell lines; average of at least two independent experiments
Description: as §1, §2, §3

VAC14 3′UTR = assay: dual-luciferase 3′UTR reporter assay, pAC-VAC14; assay type: cell-based; conditions: luciferase reporter with VAC14 3′UTR, human Hela cell lines; average of at least two independent experiments
Description: as §1, §2, §3

MCF-7 cell lines = assay: cell proliferation by counting the number of cells; assay type: cell-based, human; conditions: MCF-7 cell lines transduced; counted on day 1, 4, 5, 6, 7 and 8; compared to untreated or siGFP cells
Source text: It has been known that when human miRNAs, that is, miR-200 family (miR-200a, miR-200b, miR-200c, miR-141, and miR-429) are transduced into human cell lines, cell growth is promoted (Park, S Y et al., 2009, Nat Struct Mol Biol 16, 23-29). In MCF-7 cell lines not treated with anything, and MCF-7 cell lines transduced with siRNA targeting GFP (siGFP, SEQ ID: 1: 5′-UGAAUUAGAUGGCGAUGUU-3′, Samchonri), miR-200 family [miR-141(has-miR-141, SEQ ID: 2: 5′-[…]-3′), miR-200b (has-miR-200b, SEQ ID: 3: 5′-[…]-3′), miR-429(has-miR-429, SEQ ID: 4: 5′-[…]-3′)] and miR-29b (known to inhibit cell proliferation), on day 1, 4, 5, 6, 7 and 8, the inventors counted the number of cells and measured cell proliferation.

## 5′-UAACACUGUCUGGUAACGAUGU-3′ (listed as RNA, chemistry not given here) [miR-200a]
FOG2 3′UTR
  Represion fold, FOG2: 0.64 fold
ERBB2IP 3′UTR
  Represion fold, ERBB2IP: 1.18 fold
BAP1 3′UTR
  Represion fold, BAP1: 1.04 fold
PTPRD 3′UTR
  Represion fold, PTPRD: 1.25 fold
ELMO2 3′UTR
  Represion fold, ELMO2: 1.22 fold
WDR37 3′UTR
  Represion fold, WDR37: 0.76 fold
KLF11 3′UTR
  Represion fold, KLF11: 1.20 fold
HOXB5 3′UTR
  Represion fold, HOXB5: 1.16 fold
SEPT7 3′UTR
  Represion fold, SEPT7: 0.97 fold
SHC1 3′UTR
  Represion fold, SHC1: 1.63 fold
RASSF2 3′UTR
  Represion fold, RASSF2: 1.36 fold
VAC14 3′UTR
  Represion fold, VAC14: 1.19 fold

## 5′-UAAUACUGCCUGGUAAUGAUGA-3′ (listed as RNA, chemistry not given here) [miR-200b]
FOG2 3′UTR
  Represion fold, FOG2: 0.37 fold
ERBB2IP 3′UTR
  Represion fold, ERBB2IP: 0.57 fold
BAP1 3′UTR
  Represion fold, BAP1: 0.79 fold
PTPRD 3′UTR
  Represion fold, PTPRD: 0.89 fold
ELMO2 3′UTR
  Represion fold, ELMO2: 1.04 fold
WDR37 3′UTR
  Represion fold, WDR37: 1.16 fold
KLF11 3′UTR
  Represion fold, KLF11: 1.02 fold
HOXB5 3′UTR
  Represion fold, HOXB5: 0.73 fold
SEPT7 3′UTR
  Represion fold, SEPT7: 0.95 fold
SHC1 3′UTR
  Represion fold, SHC1: 1.41 fold
RASSF2 3′UTR
  Represion fold, RASSF2: 1.28 fold
VAC14 3′UTR
  Represion fold, VAC14: 1.20 fold
MCF-7 cell lines
  cell proliferation (number of cells): increased cell proliferation

## 5′-UAAUACUGUCUGGUAAAACCGU-3′ (listed as RNA, chemistry not given here) [miR-429]
FOG2 3′UTR
  Represion fold, FOG2: 0.47 fold
ERBB2IP 3′UTR
  Represion fold, ERBB2IP: 0.54 fold
BAP1 3′UTR
  Represion fold, BAP1: 0.67 fold
PTPRD 3′UTR
  Represion fold, PTPRD: 0.75 fold
ELMO2 3′UTR
  Represion fold, ELMO2: 0.89 fold
WDR37 3′UTR
  Represion fold, WDR37: 1.31 fold
KLF11 3′UTR
  Represion fold, KLF11: 1.07 fold
HOXB5 3′UTR
  Represion fold, HOXB5: 0.72 fold
SEPT7 3′UTR
  Represion fold, SEPT7: 1.14 fold
SHC1 3′UTR
  Represion fold, SHC1: 2.17 fold
RASSF2 3′UTR
  Represion fold, RASSF2: 1.01 fold
VAC14 3′UTR
  Represion fold, VAC14: 1.17 fold
MCF-7 cell lines
  cell proliferation (number of cells): increased cell proliferation

## 5′-UAACACUGUCUGGUAAAGAUGG-3′ (listed as RNA, chemistry not given here) [miR-141]
FOG2 3′UTR
  Represion fold, FOG2: 0.59 fold
ERBB2IP 3′UTR
  Represion fold, ERBB2IP: 0.7 fold
BAP1 3′UTR
  Represion fold, BAP1: 0.84 fold
PTPRD 3′UTR
  Represion fold, PTPRD: 0.89 fold
ELMO2 3′UTR
  Represion fold, ELMO2: 0.73 fold
WDR37 3′UTR
  Represion fold, WDR37: 1.07 fold
KLF11 3′UTR
  Represion fold, KLF11: 1.03 fold
HOXB5 3′UTR
  Represion fold, HOXB5: 0.92 fold
SEPT7 3′UTR
  Represion fold, SEPT7: 1.00 fold
SHC1 3′UTR
  Represion fold, SHC1: 1.64 fold
RASSF2 3′UTR
  Represion fold, RASSF2: 0.90 fold
VAC14 3′UTR
  Represion fold, VAC14: 0.99 fold
MCF-7 cell lines
  cell proliferation (number of cells): increased cell proliferation
